Like-named read-outs stand apart in the source and are kept apart here.
How the values were obtained:
[1] = biological target: T1, human serotonin 2C receptor (h-5-HT2C) (Homo sapiens (Human), UniProt P28335); experiment: [3H] mesulergine binding assay to evaluate affinity for human 5-HT2C receptor; conditions: h-5-HT2C/CHO membrane preparation, read-out: Test Ex. 2: 5-HT2C receptor binding inhibition constant Ki
Procedure: Mesulergine Binding Assay to Evaluate Affinity for Human 5-HT2C Receptor
(§1) Preparation of the Cells and Membrane Preparations
In the experiment, human serotonin 2C receptor (h-5-HT2C) was expressed in CHO cells (h-5-HT2C/CHO). The cells were incubated with UltraCHO Lipuid (trademark) (manufactured by BioWhitakker) containing 1% FBS, 400 μg/mL Geneticin, 100 U/mL penicillin—100 μg/mL streptomycin (all manufactured by Sigma Aldrich) and 250 μg/mL Zeosin (manufactured by InvivoGen) in an incubator containing 5% CO2; detached and collected using 50 mmol/L Tris-HCl (pH=7.4); homogenized with a homogenizer manufactured by Teflon (trademark); and then centrifuged (48,000×g, 25 min, 4° C.). The precipitate was suspended again in the appropriate amount of 50 mmol/L Tris-HCl (to give a membrane preparation), and stored at −80° C. until used. The amount of protein in the membrane preparation was assayed by Dye Reagent Concentrate (manufactured by BIO-RAD) using bovine serum albumin (manufactured by Sigma Aldrich) as a standard.
2-2. 5-HT2C Receptor Binding Assay
A solution of 200 μL in total was prepared by mixing 50 μL of [^3H] mesulergine (manufactured by GE Healthcare) diluted with 50 mmol/L Tris-HCl (pH=7.4) (final concentration: about 2 nmol/L), 149 μL of the h-5-HT2C/CHO membrane preparation (protein amount: 20 μg/well), and 1 μL of the test drug dissolved in dimethylsulfoxide. The solution was reacted at 37° C. for 30 minutes, and then quickly suction-filtered under reduced pressure through a glass fiber filter coated with 1% aq. bovine serum albumin. The glass fiber filter was washed twice with 250 μL of 50 mmol/L Tris-HCl (pH=7.4), placed in a plastic vial containing 4 mL of liquid scintillator (ACS-II, manufactured by Amersham) or Ecoscint A (manufactured by National Diagnostics), and the remaining radioactivity on the filter paper was assayed with a liquid scintillation counter. The non-specific binding of [^3H] mesulergine was defined as a binding amount in the presence of 10 μmol/L SB206553 (manufactured by Sigma Aldrich). The IC50 value was calculated according to Hill analysis, and the binding inhibition constant (Ki) was calculated according to the following formula: Binding inhibition constant (Ki)=IC50/(1+S/Kd) wherein S is a concentration of the added [^3H] mesulergine, and Kd is a binding dissociation constant of [^3H] mesulergine which was calculated from a saturated binding assay using the same cell membrane.

[2] = biological target: human serotonin transporter (h-SERT) (Homo sapiens (Human), UniProt P31645); experiment: [3H] citalopram binding assay to evaluate human serotonin reuptake inhibitory action (h-SERT binding assay)
Procedure: Citalopram Binding Assay to Evaluate Human Serotonin Reuptake Inhibitory Action
as §1
In the experiment, human serotonin transporter (h-SERT) was expressed in CHO cells (h-SERT/CHO). The cells were incubated with F12 containing 10% FCS, 500 μg/mL Geneticin and 100 U/mL penicillin—100 μg/mL streptmycin (all manufactured by Sigma Aldrich) in an incubator containing 5% CO2; detached and collected using a SERT buffer [50 mmol/L Tris-HCl comprising 120 mmol/L NaCl and 5 mmol/L KCl (pH=7.4)]; homogenized with a homogenizer manufactured by Teflon (trademark); and then centrifuged (50,000×g, 30 min, 4° C.). The precipitate was suspended again in the appropriate amount of SERT buffer (to give a membrane preparation), and stored at −80° C. until used. The amount of protein in the membrane preparation was assayed by Dye Reagent Concentrate (manufactured by BIO-RAD) using bovine serum albumin (manufactured by Sigma Aldrich) as a standard.
1-2. h-SERT Binding Assay
The [^3H] citalopram binding was measured according to the method disclosed in Owens M. J. et al., J. Pharm. […] The solution was reacted at room temperature for 60 minutes, and then quickly suction-filtered under reduced pressure through a glass fiber filter coated with 0.05% aq. polyethyleneimine. The glass fiber filter was washed twice with […] of the SERT buffer, placed in a plastic vial containing 4 mL of liquid scintillator (ACS-II, manufactured by Amersham) or Ecoscint A (manufactured by National Diagnostics), and the remaining radioactivity on the filter paper was assayed with a liquid scintillation counter.

[3] = biological target: T1, human serotonin 2C receptor (h-5-HT2C); experiment: 5-HT2C receptor agonistic action assay (FLIPR Calcium 4 Assay kit, h-5-HT2C/CHO cells); type: cell-based
Procedure: 3-1. The Cells and Inoculation Thereof
In the experiment, human serotonin 2C receptor (h-5-HT2C) was expressed in CHO cells (h-5-HT2C/CHO). The cells were incubated with UltraCHO Lipuid (trademark) (manufactured by BioWhitakker) containing 1% FBS, 400 μg/mL Geneticin, 100 U/mL penicillin—100 μg/mL streptomycin (all manufactured by Sigma Aldrich) and 250 μg/mL Zeosin (manufactured by InvivoGen) in an incubator containing 5% CO2. On the day before using the cells, they were detached and collected using 250 μg/mL Trypsin solution (manufactured by Nacalai Tesque), then inoculated in a 96 well flat clear bottom black polystyrene TC-treated microplates (manufactured by Corning) at 40000 cells/well/60 μL in an incubator containing 5% CO2 for 16 hours to 24 hours.
3-2. 5-HT2C Receptor Agonistic Action Assay
The 5-HT2C receptor agonistic action was evaluated with FLIPR Calcium 4 Assay kit (manufactured by Molecular Devices). In specific, to the cells inoculated in the plate were added Component A of FLIPR Calcium 4 Assay kit dissolved in 100 mL of HHBP buffer (1×Hanks buffer, 20 mmol/L HEPES, both manufactured by Gibco) at an amount of 40 μL/well, and the cells were incubated in an incubator containing 5% CO2 for 1 hour. Then, the cells were set in FLIPR TETRA (trademark) (manufactured by Molecular Devices), to the cells was added the test material diluted with HHBP buffer, 2.5 mmol/L Probenecid (manufactured by Sigma) (concentration after dilution: 10 μmol/L) at an amount of 20 μL/well, and the fluorescence was measured. Then, in order to evaluate the antagonistic action of the test material, 20 μL/well of 5-HT solution (manufactured by Sigma, final concentration: 0.1 nmol/L) was further added to the cells, and the fluorescence was measured.
The 5-HT2C receptor agonistic action of each test material was calculated as a rate of fluorescence enhancement wherein 100% was defined as a value when the cells were given 10 μmol/L 5-HT. Furthermore, the 5-HT2C receptor inverse agonistic action was calculated as a rate of fluorescence decay wherein −100% was defined as a value when the cells were given 10 μmol/L SB206553 (manufactured by Sigma Aldrich). A lower value of the 5-HT2C receptor agonistic action of the test material means that the material has a higher antagonistic action. In particular, when the value of the 5-HT2C receptor agonistic action of the test material is below 0%, the material has an inverse agonistic action for 5-HT2C receptor.

[4] = [3H] citalopram binding, read-out: Test Ex. 1: h-SERT binding inhibition constant Ki
[5] = test material 10 μmol/L, 100% = 10 μmol/L 5-HT, −100% = 10 μmol/L SB206553, below 0% = inverse agonistic action

T1 sequence (P28335 whole entry, looked up): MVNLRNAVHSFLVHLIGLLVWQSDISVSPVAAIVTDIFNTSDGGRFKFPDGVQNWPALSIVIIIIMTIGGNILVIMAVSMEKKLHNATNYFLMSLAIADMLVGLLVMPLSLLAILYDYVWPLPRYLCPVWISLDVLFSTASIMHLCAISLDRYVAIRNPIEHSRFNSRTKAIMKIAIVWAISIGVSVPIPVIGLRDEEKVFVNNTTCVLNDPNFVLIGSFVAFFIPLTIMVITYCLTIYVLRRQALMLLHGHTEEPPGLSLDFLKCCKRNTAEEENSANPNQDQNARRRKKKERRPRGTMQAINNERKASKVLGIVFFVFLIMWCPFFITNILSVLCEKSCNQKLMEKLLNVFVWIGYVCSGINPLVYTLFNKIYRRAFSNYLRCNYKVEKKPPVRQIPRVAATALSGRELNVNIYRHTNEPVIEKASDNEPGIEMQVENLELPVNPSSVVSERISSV

SMILES	Ki [1] [nM]	Ki [2, 4] [nM]	Test Ex. 3: 5-HT2C receptor agonistic action [3, 5] [%]	Test Ex. 3: 5-HT2C receptor agonistic action [3] [%]	Ki [2] [nM]
CNCc1cc(OCc2ccccc2F)n(Cc2ccc(F)cc2)n1 [Example 218, 1-{1-(4-fluorobenzyl)-5-[(2-fluorobenzyl)oxy]-1H-pyrazol-3-yl}-N-methylmethanamine]	10	9.7	−111	–	–
CCC(CC)n1nc(CNC)cc1OCc1ccc(F)cc1Cl [Example 253]	31	1.5	−86	–	–
CNCc1cc(OCc2ccc(F)cc2C)n(CC2CCCCO2)n1 (stereo not drawn) [Compound 108]	18	1.9	−117	–	–
CNCc1cc(OCc2ccccc2)n(C(C)C2CCCC2)n1.Cl (stereo not drawn) [Example 288, 1-[5-(Benzyloxy)-1-(1-cyclopentylethyl)-1H-pyrazol-3-yl]-N-methylmethanamine hydrochloride]	19	0.86	–	−80	–
CCNCc1cc(OCc2cc(F)ccc2F)n(CC2CCCCC2)n1 [Example 344, N-({1-(Cyclohexylmethyl)-5-[(2,5-difluorobenzyl)oxy]-1H-pyrazol-3-yl}methyl)ethanamine]	6.7	33	–	−82	–
CNCc1cc(OCc2cc(F)c(F)cc2F)n(CCC2CC2)n1 [Example 426]	14	0.99	−99	–	–
CNCc1cc(SCc2ccccc2)n(Cc2ccccc2)n1.Cl [Example 355, 1-[1-Benzyl-5-(benzylsulfanyl)-1H-pyrazol-3-yl]-N-methylmethanamine hydrochloride]	17	–	−72	–	32
CNCc1cc(OCc2ccccc2)n(C(CO)C2CCCCC2)n1.Cl (stereo not drawn) [Example 328, 2-{5-(Benzyloxy)-3-[(methylamino)methyl]-1H-pyrazol-1-yl}-2-cyclohexyl-ethanol hydrochloride]	193	–	−116	–	3.6
CNCc1cc(OCc2cc(F)ccc2F)n(CCC(C)(C)F)n1.Cl [Example 481, 1-{5-[(2,5-Difluorobenzyl)oxy]-1-(3-fluoro-3-methylbutyl)-1H-pyrazol-3-yl}-N-methylmethanamine hydrochloride]	22	0.85	–	−109	–
CNCc1cc(OCc2ccccc2)n(CC2CCCCC2)n1 [Example 5, 1-[5-(Benzyloxy)-1-(cyclohexylmethyl)-1H-pyrazol-3-yl]-N-methylmethanamine]	4.4	1.5	–	−91	–
Cl.NCc1cc(OCc2cc(F)ccc2F)n(CC2CCCC2)n1 [Example 347, 1-{1-(Cyclopentylmethyl)-5-[(2,5-difluorobenzyl)oxy]-1H-pyrazol-3-yl}methanamine hydrochloride]	31	–	−114	–	13
CNCc1cc(OCc2cc(Cl)ccc2F)n(CCC(C)(C)F)n1.Cl [Example 482, 1-{5-[(5-Chloro-2-fluorobenzyl)oxy]-1-(3-fluoro-3-methylbutyl)-1H-pyrazol-3-yl}-N-methylmethanamine hydrochloride]	2.6	2.9	−116	–	–
CNCc1cc(OCc2cccc(Cl)c2)n(CC2CCc3ccccc3O2)n1.Cl (stereo not drawn) [Example 341, 1-{5-[(3-Chlorobenzyl)oxy]-1-(3,4-dihydro-2H-chromen-2-ylmethyl)-1H-pyrazol-3-yl}-N-methylmethanamine hydrochloride]	12	23	−71	–	–
CNCc1cc(OCc2ccc(F)cc2F)n(CC2CCCC2)n1 [Example 144, 1-{1-(cyclopentylmethyl)-5-[(2,4-difluorobenzyl)oxy]-1H-pyrazol-3-yl}-N-methylmethanamine]	2.2	8.3	–	−127	–
CNCc1cc(OCc2cc(Cl)ccc2F)n(CCC2(O)CCCC2)n1.Cl [Example 435, 1-(2-{5-[(5-Chloro-2-fluorobenzyl)oxy]-3-[(methylamino)-methyl]-1H-pyrazol-1-yl}ethyl)cyclopentanol hydrochloride]	4.4	–	−125	–	0.6
CNCc1cc(OCc2ccccc2)n(C(CF)C2CCCCC2)n1.Cl (stereo not drawn) [Example 330, 1-[5-(Benzyloxy)-1-(1-cyclohexyl-2-fluoroethyl)-1H-pyrazol-3-yl]-N-methylmethanamine hydrochloride]	17	0.96	−82	–	–
CNCc1cc(OCc2ccccc2)n(CCCc2ccccc2)n1 [Example 3, 1-[5-(Benzyloxy)-1-(3-phenylpropyl)-1H-pyrazol-3-yl]-N-methylmethanamine]	5.4	12	–	−91	–
CNCc1cc(OC(F)(F)c2ccccc2)n(CC2CCCCC2)n1.Cl [Example 349, 1-{1-(Cyclohexylmethyl)-5-[difluoro(phenyl)methoxy]-1H-pyrazol-3-yl}-N-methylmethanamine hydrochloride]	18	–	−82	–	3
